Experimental data reported in patent publication US20230131966A1, “FUNGICIDAL AMIDES” (FMC Corporation, priority 2020, published 2023).

Assays:
Assay type in all cases: in vivo
[1] = tested on: Phakopsora pachyrhizi; assay: Test A: Asian soybean rust control on soybean seedlings; conditions: soybean seedlings, 100 = 100% disease control, 0 = no control
[2] = tested on: Erysiphe graminis f. sp. tritici; assay: Test G: wheat powdery mildew control on wheat seedlings; conditions: 100 = 100% disease control, 0 = no control
[3] = tested on: Zymoseptoria tritici; assay: Test C: wheat leaf blotch control on wheat seedlings; conditions: wheat seedlings, 100 = 100% disease control, 0 = no control
[4] = tested on: Botrytis cinerea; assay: Test E: tomato Botrytis control on tomato seedlings; conditions: 100 = 100% disease control, 0 = no control
[5] = tested on: Plasmopara viticola; assay: Test D: grape downy mildew control on grape seedlings; conditions: 100 = 100% disease control, 0 = no control
[6] = tested on: Phytophthora infestans; assay: whole plant or invertebrate; conditions: tomato seedlings, 100 = 100% disease control, 0 = no control
[7] = tested on: Puccinia recondita f. sp. tritici; assay: Test B: wheat leaf rust control on wheat seedlings; conditions: wheat seedlings, 100 = 100% disease control, 0 = no control

## COc1ccnc(C(=O)NC(C)C(=O)OC(C(C)C)C2CCCCC2)c1O (mixture of isomers) [Compound 63]
[1]; 250 ppm
  Test A disease control rating: 100%
[2]; 250 ppm
  Test G disease control rating: 0%
[3]; 250 ppm
  Test C disease control rating: 79%
[4]; 250 ppm
  Test E disease control rating: 16%
[5]; 250 ppm
  Test D disease control rating: 81%
[6]; 250 ppm
  Test F disease control rating: 0%
[7]; 250 ppm
  Test B disease control rating: 99%

## COc1ccnc(C(=O)NC(C)C(=O)OC(C)c2ccc(C3CCCC3)cc2)c1OC(C)=O (mixture of isomers) [Compound 64]
[1]; 50 ppm
  Test A disease control rating: 100%
[2]; 50 ppm
  Test G disease control rating: 0%
[3]; 50 ppm
  Test C disease control rating: 13%
[4]; 50 ppm
  Test E disease control rating: 0%
[5]; 50 ppm
  Test D disease control rating: 86%
[6]; 50 ppm
  Test F disease control rating: 0%
[7]; 50 ppm
  Test B disease control rating: 99%

## COc1ccnc(C(=O)NC(C)C(=O)OC(C)c2ccc(Br)s2)c1OC(C)=O (mixture of isomers) [Compound 67]
[1]; 250 ppm
  Test A disease control rating: 13%
[2]; 250 ppm
  Test G disease control rating: 0%
[3]; 250 ppm
  Test C disease control rating: 36%
[4]; 250 ppm
  Test E disease control rating: 0%
[5]; 250 ppm
  Test D disease control rating: 53%
[6]; 250 ppm
  Test F disease control rating: 0%
[7]; 250 ppm
  Test B disease control rating: 55%

## CCCCCCc1ccc(C(C)OC(=O)C(C)NC(=O)c2nccc(OC)c2O)cc1 (mixture of isomers) [Compound 68]
[1]; 250 ppm
  Test A disease control rating: 100%
[2]; 250 ppm
  Test G disease control rating: 0%
[3]; 250 ppm
  Test C disease control rating: 97%
[4]; 250 ppm
  Test E disease control rating: 0%
[5]; 250 ppm
  Test D disease control rating: 46%
[6]; 250 ppm
  Test F disease control rating: 40%
[7]; 250 ppm
  Test B disease control rating: 95%

## COc1ccnc(C(=O)NC(C)C(=O)OC(C)c2ccc(C#C[Si](C)(C)C)cc2)c1O (mixture of isomers) [Compound 69]
[1]; 250 ppm
  Test A disease control rating: 100%
[2]; 250 ppm
  Test G disease control rating: 0%
[3]; 250 ppm
  Test C disease control rating: 94%
[4]; 250 ppm
  Test E disease control rating: 0%
[5]; 250 ppm
  Test D disease control rating: 50%
[6]; 250 ppm
  Test F disease control rating: 9%
[7]; 250 ppm
  Test B disease control rating: 100%

## COc1ccnc(C(=O)NC(C(=O)OC(C)c2ccc(C3CCCCC3)cc2)C(C)C)c1O (mixture of isomers) [Compound 70]
[1]; 250 ppm
  Test A disease control rating: 100%
[2]; 250 ppm
  Test G disease control rating: 13%
[3]; 250 ppm
  Test C disease control rating: 97%
[4]; 250 ppm
  Test E disease control rating: 0%
[5]; 250 ppm
  Test D disease control rating: 63%
[6]; 250 ppm
  Test F disease control rating: 24%
[7]; 250 ppm
  Test B disease control rating: 100%

## CCC(OC(=O)C(C)NC(=O)c1nccc(OC)c1O)c1ccc(C2CCCCC2)cc1 (mixture of isomers) [Compound 72]
[1]; 250 ppm
  Test A disease control rating: 100%
[2]; 250 ppm
  Test G disease control rating: 35%
[3]; 250 ppm
  Test C disease control rating: 27%
[4]; 250 ppm
  Test E disease control rating: 0%
[5]; 250 ppm
  Test D disease control rating: 62%
[6]; 250 ppm
  Test F disease control rating: 0%
[7]; 250 ppm
  Test B disease control rating: 92%

## COc1ccnc(C(=O)NC(C)C(=O)OC(C)c2ccc3ccccc3c2)c1OC(C)=O (mixture of isomers) [Compound 75]
[1]; 250 ppm
  Test A disease control rating: 100%
[2]; 250 ppm
  Test G disease control rating: 0%
[3]; 250 ppm
  Test C disease control rating: 100%
[4]; 250 ppm
  Test E disease control rating: 0%
[5]; 250 ppm
  Test D disease control rating: 61%
[6]; 250 ppm
  Test F disease control rating: 0%
[7]; 250 ppm
  Test B disease control rating: 100%

## C#Cc1ccc(C(C)OC(=O)C(C)NC(=O)c2nccc(OC)c2O)cc1 (mixture of isomers) [Compound 78]
[1]; 250 ppm
  Test A disease control rating: 100%
[2]; 250 ppm
  Test G disease control rating: 0%
[3]; 250 ppm
  Test C disease control rating: 82%
[4]; 250 ppm
  Test E disease control rating: 0%
[5]; 250 ppm
  Test D disease control rating: 85%
[6]; 250 ppm
  Test F disease control rating: 0%
[7]; 250 ppm
  Test B disease control rating: 100%

## COc1ccnc(C(=O)NC(C)C(=O)OC(C)c2ccc(C#C[Si](C)(C)C)cc2)c1OC(C)=O (mixture of isomers) [Compound 80]
[1]; 250 ppm
  Test A disease control rating: 100%
[2]; 250 ppm
  Test G disease control rating: 0%
[3]; 250 ppm
  Test C disease control rating: 98%
[4]; 250 ppm
  Test E disease control rating: 0%
[5]; 250 ppm
  Test D disease control rating: 28%
[6]; 250 ppm
  Test F disease control rating: 0%
[7]; 250 ppm
  Test B disease control rating: 100%

## COc1ccnc(C(=O)NC(C)C(=O)OC(C)c2ccc(F)cc2Oc2ccccc2)c1O (mixture of isomers) [Compound 81]
[1]; 250 ppm
  Test A disease control rating: 93%
[2]; 250 ppm
  Test G disease control rating: 0%
[3]; 250 ppm
  Test C disease control rating: 78%
[4]; 250 ppm
  Test E disease control rating: 0%
[5]; 250 ppm
  Test D disease control rating: 53%
[6]; 250 ppm
  Test F disease control rating: 0%
[7]; 250 ppm
  Test B disease control rating: 68%

## COc1ccnc(C(=O)NC(C)C(=O)OC(C)c2ccc(F)cc2Oc2ccc(F)cc2)c1O (mixture of isomers) [Compound 82]
[1]; 250 ppm
  Test A disease control rating: 95%
[2]; 250 ppm
  Test G disease control rating: 0%
[3]; 250 ppm
  Test C disease control rating: 79%
[4]; 250 ppm
  Test E disease control rating: 0%
[5]; 250 ppm
  Test D disease control rating: 82%
[6]; 250 ppm
  Test F disease control rating: 0%
[7]; 250 ppm
  Test B disease control rating: 55%

## COc1ccnc(C(=O)NC(C)C(=O)OC(C)c2ccc(F)cc2Oc2ccccc2)c1OC(C)=O (mixture of isomers) [Compound 85]
[1]; 250 ppm
  Test A disease control rating: 63%
[2]; 250 ppm
  Test G disease control rating: 0%
[3]; 250 ppm
  Test C disease control rating: 67%
[4]; 250 ppm
  Test E disease control rating: 0%
[5]; 250 ppm
  Test D disease control rating: 62%
[6]; 250 ppm
  Test F disease control rating: 0%
[7]; 250 ppm
  Test B disease control rating: 79%

## COc1ccnc(C(=O)NC(C)C(=O)OC(C)c2ccc(-n3ccc(C(F)(F)F)n3)cc2-n2ccc(C(F)(F)F)n2)c1O (mixture of isomers) [Compound 89]
[1]; 250 ppm
  Test A disease control rating: 0%
[2]; 250 ppm
  Test G disease control rating: 0%
[3]; 250 ppm
  Test C disease control rating: 0%
[4]; 250 ppm
  Test E disease control rating: 0%
[5]; 250 ppm
  Test D disease control rating: 16%
[6]; 250 ppm
  Test F disease control rating: 0%
[7]; 250 ppm
  Test B disease control rating: 0%

## COc1ccnc(C(=O)NC(C)C(=O)OC(C)c2ccc(-n3ccc(C(F)(F)F)n3)cc2-n2ccc(C(F)(F)F)n2)c1OC(C)=O (mixture of isomers) [Compound 90]
[1]; 250 ppm
  Test A disease control rating: 0%
[2]; 250 ppm
  Test G disease control rating: 0%
[3]; 250 ppm
  Test C disease control rating: 0%
[4]; 250 ppm
  Test E disease control rating: 0%
[5]; 250 ppm
  Test D disease control rating: 17%
[6]; 250 ppm
  Test F disease control rating: 0%
[7]; 250 ppm
  Test B disease control rating: 55%

## COc1cccc(C(=O)NC(C)C(=O)OC(C)C2CCCCC2)c1O (mixture of isomers) [Compound 91]
[1]; 250 ppm
  Test A disease control rating: 0%
[2]; 250 ppm
  Test G disease control rating: 0%
[3]; 250 ppm
  Test C disease control rating: 2%
[4]; 250 ppm
  Test E disease control rating: 0%
[5]; 250 ppm
  Test D disease control rating: 96%
[6]; 250 ppm
  Test F disease control rating: 0%
[7]; 250 ppm
  Test B disease control rating: 0%

## COc1cccc(C(=O)NC(C)C(=O)OC(C)C2CCCCC2)c1OC(C)=O (mixture of isomers) [Compound 92]
[1]; 250 ppm
  Test A disease control rating: 0%
[2]; 250 ppm
  Test G disease control rating: 0%
[3]; 250 ppm
  Test C disease control rating: 0%
[4]; 250 ppm
  Test E disease control rating: 0%
[5]; 250 ppm
  Test D disease control rating: 60%
[6]; 250 ppm
  Test F disease control rating: 0%
[7]; 250 ppm
  Test B disease control rating: 0%

## CC(NC(=O)c1cccc(NC=O)c1O)C(=O)OC(C)c1ccc(C2CCCCC2)cc1 (mixture of isomers) [Compound 97]
[1]; 250 ppm
  Test A disease control rating: 98%
[2]; 250 ppm
  Test G disease control rating: 0%
[3]; 250 ppm
  Test C disease control rating: 99%
[4]; 250 ppm
  Test E disease control rating: 0%
[5]; 250 ppm
  Test D disease control rating: 100%
[6]; 250 ppm
  Test F disease control rating: 99%
[7]; 250 ppm
  Test B disease control rating: 92%

## COc1ccnc(C(=O)NC(C)C(=O)N(C)C(C)c2ccc(C3CCCCC3)cc2)c1O (mixture of isomers) [Compound 98]
[1]; 250 ppm
  Test A disease control rating: 89%
[2]; 250 ppm
  Test G disease control rating: 0%
[3]; 250 ppm
  Test C disease control rating: 59%
[4]; 250 ppm
  Test E disease control rating: 0%
[5]; 250 ppm
  Test D disease control rating: 71%
[6]; 250 ppm
  Test F disease control rating: 0%
[7]; 250 ppm
  Test B disease control rating: 0%

## COc1ccnc(C(=O)NC(C)C(=O)N(C)C(C)c2ccc(C3CCCCC3)cc2)c1OC(C)=O (mixture of isomers) [Compound 99]
[1]; 250 ppm
  Test A disease control rating: 98%
[2]; 250 ppm
  Test G disease control rating: 0%
[3]; 250 ppm
  Test C disease control rating: 88%
[4]; 250 ppm
  Test E disease control rating: 0%
[5]; 250 ppm
  Test D disease control rating: 39%
[6]; 250 ppm
  Test F disease control rating: 0%
[7]; 250 ppm
  Test B disease control rating: 68%

## COc1ccnc(C(=O)NC(C)C(=O)OC(C)C2CCCCCC2)c1OC(C)=O (mixture of isomers) [Compound 101]
[1]; 50 ppm
  Test A disease control rating: 100%
[2]; 50 ppm
  Test G disease control rating: 0%
[3]; 50 ppm
  Test C disease control rating: 66%
[4]; 50 ppm
  Test E disease control rating: 0%
[5]; 50 ppm
  Test D disease control rating: 86%
[6]; 50 ppm
  Test F disease control rating: 0%
[7]; 50 ppm
  Test B disease control rating: 68%

## COc1ccnc(C(=O)NC(C)C(=O)OC(C)C2CCCCCC2)c1O (mixture of isomers) [Compound 102]
[1]; 50 ppm
  Test A disease control rating: 100%
[2]; 50 ppm
  Test G disease control rating: 0%
[3]; 50 ppm
  Test C disease control rating: 0%
[4]; 50 ppm
  Test E disease control rating: 0%
[5]; 50 ppm
  Test D disease control rating: 72%
[6]; 50 ppm
  Test F disease control rating: 0%
[7]; 50 ppm
  Test B disease control rating: 55%

## COc1ccnc(C(=O)NC(C)C(=O)OC(C)C2CCC(c3ccccc3)CC2)c1O (mixture of isomers) [Compound 103]
[1]; 250 ppm
  Test A disease control rating: 100%
[2]; 250 ppm
  Test G disease control rating: 0%
[3]; 250 ppm
  Test C disease control rating: 99%
[4]; 250 ppm
  Test E disease control rating: 0%
[5]; 250 ppm
  Test D disease control rating: 74%
[6]; 250 ppm
  Test F disease control rating: 0%
[7]; 250 ppm
  Test B disease control rating: 100%

## COc1ccnc(C(=O)NC(C)C(=O)OC(C)c2cc3ccccc3o2)c1O (mixture of isomers) [Compound 125]
[1]; 250 ppm
  Test A disease control rating: 99%
[2]; 250 ppm
  Test G disease control rating: 0%
[3]; 250 ppm
  Test C disease control rating: 90%
[4]; 250 ppm
  Test E disease control rating: 0%
[5]; 250 ppm
  Test D disease control rating: 67%
[6]; 250 ppm
  Test F disease control rating: 0%
[7]; 250 ppm
  Test B disease control rating: 90%
